Experimental data as given in PubChem BioAssay AID330 (DTP/NCI, 2004).
Where “and” joins values, the source holds several entries; their conditions need not be identical. Identical values can stand only once. Toxic doses and inconclusive results are not listed. The calls were made as follows: active = survival T/C of 150% or more; inactive = T/C below 125% in these data.

Tested on: P388 leukemia ip, CD2F1 mice, survival T/C
Assay: NCI In Vivo Anticancer Drug Screen. Data for tumor model P388 Leukemia (intraperitoneal) in CD2F1 (CDF1) mice
Conditions: endpoint: median survival time, higher = longer survival
Protocol: The antitumor activity of compounds was measured in mice bearing transplantable tumors. Survival or tumor size were measured and the results are expressed as the measurement made in the treated group (T) divided by the measurement made in the vehicle treated control group (C). The tumor model used in this assay is P388 Leukemia (intraperitoneal) in CD2F1 (CDF1) mice

[1] = dose: 12.5 mg/kg/injection, schedule: Q01DX009 (ip), vehicle: saline with Tween-80
[2] = dose: 25.0 mg/kg/injection, schedule: Q01DX009 (ip), vehicle: saline with Tween-80
[3] = dose: 50.0 mg/kg/injection, schedule: Q01DX009 (ip), vehicle: saline with Tween-80
[4] = dose: 50.0 mg/kg/injection, schedule: Q01DX005 (ip), vehicle: saline with Tween-80
[5] = dose: 100.0 mg/kg/injection, schedule: Q01DX005 (ip), vehicle: saline with Tween-80
[6] = dose: 50.0 mg/kg/injection, schedule: Q04DX003 (ip), vehicle: saline with Tween-80
[7] = dose: 100.0 mg/kg/injection, schedule: Q04DX003 (ip), vehicle: saline with Tween-80
[8] = dose: 200.0 mg/kg/injection, schedule: Q01DX005 (ip), vehicle: saline with Tween-80
[9] = dose: 100.0 mg/kg/injection, schedule: Q01DX001 (ip), vehicle: Klucel (hydroxypropylcellulose) (HPC)
[10] = dose: 200.0 mg/kg/injection, schedule: Q01DX001 (ip), vehicle: Klucel (hydroxypropylcellulose) (HPC)
[11] = dose: 400.0 mg/kg/injection, schedule: Q01DX001 (ip), vehicle: Klucel (hydroxypropylcellulose) (HPC)
[12] = dose: 25.0 mg/kg/injection, schedule: Q01DX009 (ip), vehicle: Klucel (hydroxypropylcellulose) (HPC)
[13] = dose: 50.0 mg/kg/injection, schedule: Q01DX009 (ip), vehicle: Klucel (hydroxypropylcellulose) (HPC)
[14] = dose: 100.0 mg/kg/injection, schedule: Q01DX009 (ip), vehicle: Klucel (hydroxypropylcellulose) (HPC)
[15] = dose: 6.25 mg/kg/injection, schedule: Q01DX009 (ip), vehicle: saline with Tween-80
[16] = dose: 60.0 mg/kg/injection, schedule: Q01DX005 (ip), vehicle: Klucel (hydroxypropylcellulose) (HPC)
[17] = dose: 120.0 mg/kg/injection, schedule: Q01DX005 (ip), vehicle: Klucel (hydroxypropylcellulose) (HPC)
[18] = dose: 240.0 mg/kg/injection, schedule: Q01DX005 (ip), vehicle: Klucel (hydroxypropylcellulose) (HPC)

Measured: T/C

NC(N)=N/N=C/c1ccc(Cl)c(Cl)c1
inactive: [1] 100 % of control | [2] 95 % of control | [3] 86 % of control

N#Cc1cccc[n+]1Cc1ccc([N+](=O)[O-])cc1
inactive: [1] 95 % of control | [2] 109 % of control | [3] 118 % of control

CNC(=O)OCc1nc(SC)n(Cc2ccccc2)c1COC(=O)NC
inactive: dose: 12.5 mg/kg/injection, schedule: Q01DX005 (ip), vehicle: saline with Tween-80 100 % of control | dose: 25.0 mg/kg/injection, schedule: Q01DX005 (ip), vehicle: saline with Tween-80 110 % of control | [4] 110 % of control and 116 % of control | [5] 106 % of control and 116 % of control

CC(CC(=O)c1ccccc1)=NCCCCN=C(C)CC(=O)c1ccccc1
inactive: dose: 25.0 mg/kg/injection, schedule: Q04DX002 (ip), vehicle: saline with Tween-80 104 % of control | dose: 25.0 mg/kg/injection, schedule: Q04DX003 (ip), vehicle: saline with Tween-80 101 % of control | [4] 91 % of control | dose: 50.0 mg/kg/injection, schedule: Q04DX002 (ip), vehicle: saline with Tween-80 96 % of control | [6] 95 % of control | [5] 95 % of control | dose: 100.0 mg/kg/injection, schedule: Q04DX002 (ip), vehicle: saline with Tween-80 105 % of control | [7] 92 % of control | [8] 88 % of control | dose: 200.0 mg/kg/injection, schedule: Q04DX002 (ip), vehicle: saline with Tween-80 98 % of control

CCCCCCCCCCCCCCCC(=O)OCC(COP(=O)(O)OC1CCC2(C)C(=CCC3C2CCC2(C)C(C(C)CCCC(C)C)CCC32)C1)OC(=O)CCCCCCCCCCCCCCC (configuration not stated)
inactive: [9] 97 % of control | [10] 99 % of control | [11] 96 % of control

O=C1CSC(c2cccc(Br)c2)N1c1nncs1 (configuration not stated)
inactive: dose: 60.0 mg/kg/injection, schedule: Q01DX005 (ip), vehicle: saline with Tween-80 101 % of control | dose: 120.0 mg/kg/injection, schedule: Q01DX005 (ip), vehicle: saline with Tween-80 97 % of control | dose: 240.0 mg/kg/injection, schedule: Q01DX005 (ip), vehicle: saline with Tween-80 93 % of control

CC(=O)C1CC(CC(=O)O)C1(C)C (configuration not stated)
inactive: [12] 96 % of control | [13] 108 % of control and 92 % of control | [14] 96 % of control and 97 % of control | dose: 200.0 mg/kg/injection, schedule: Q01DX009 (ip), vehicle: Klucel (hydroxypropylcellulose) (HPC) 99 % of control and 100 % of control | dose: 400.0 mg/kg/injection, schedule: Q01DX009 (ip), vehicle: Klucel (hydroxypropylcellulose) (HPC) 100 % of control

CCCCN(CCCC)CCC(O)c1cc(-c2ccc(C(F)(F)F)cc2)nc(C(F)(F)F)c1 (configuration not stated)
inactive: [15] 89 % of control | [1] 94 % of control | [2] 110 % of control

Cc1cc(C(=O)NCCc2ccc(S(=O)(=O)NC(=O)NCC3CC4CCC3C4)cc2)no1 (configuration not stated)
inactive: dose: 50.0 mg/kg/injection, schedule: Q01DX001 (ip), vehicle: Klucel (hydroxypropylcellulose) (HPC) 106 % of control | [9] 97 % of control | [10] 94 % of control

Cc1cc(N/N=C/c2c(C)n(C)n(-c3ccccc3)c2=O)c2cc3c(cc2n1)OCO3
inactive: dose: 6.25 mg/kg/injection, schedule: Q01DX005 (ip), vehicle: Klucel (hydroxypropylcellulose) (HPC) 103 % of control | dose: 12.5 mg/kg/injection, schedule: Q01DX005 (ip), vehicle: Klucel (hydroxypropylcellulose) (HPC) 113 % of control | dose: 25.0 mg/kg/injection, schedule: Q01DX005 (ip), vehicle: Klucel (hydroxypropylcellulose) (HPC) 108 % of control

Cc1ccccc1[B-]12OCC[N+]1(CNC(=O)c1ccccc1O)CCO2 (configuration not stated)
inactive: dose: 50.0 mg/kg/injection, schedule: Q01DX005 (ip), vehicle: Klucel (hydroxypropylcellulose) (HPC) 106 % of control | dose: 100.0 mg/kg/injection, schedule: Q01DX005 (ip), vehicle: Klucel (hydroxypropylcellulose) (HPC) 105 % of control | dose: 200.0 mg/kg/injection, schedule: Q01DX005 (ip), vehicle: Klucel (hydroxypropylcellulose) (HPC) 105 % of control

Cc1nc(C(=O)c2ccccc2)cnc1-c1ccccc1
inactive: [16] 92 % of control | [17] 88 % of control | [18] 91 % of control

CC(=O)[C@]1(O)Cc2c(O)c3c(c(O)c2[C@@H](OC2CC(N)C(O)C(C)O2)C1)C(=O)c1c(OCc2ccccc2)cccc1C3=O (some centres not stated)
inactive: dose: 12.5 mg/kg/injection, schedule: Q04DX003 (ip), vehicle: distilled water + Tween-80 101 % of control | dose: 100.0 mg/kg/injection, schedule: Q04DX003 (ip), vehicle: distilled water + Tween-80 91 % of control

OC1CC2(CC3(C1)SCCS3)SCCS2 (configuration not stated)
inactive: [9] 102 % of control | [10] 99 % of control | [11] 106 % of control

O=C(/C=C/c1ccc(Cl)c(Cl)c1)C1CCCCC1
inactive: [13] 103 % of control | [14] 99 % of control

COc1cccc2c1C(=O)c1c(O)c(CCl)cc(O)c1C2=O
inactive: dose: 3.75 mg/kg/injection, schedule: Q01DX005 (ip), vehicle: saline with Tween-80 99 % of control | dose: 7.5 mg/kg/injection, schedule: Q01DX005 (ip), vehicle: saline with Tween-80 92 % of control | dose: 15.0 mg/kg/injection, schedule: Q01DX005 (ip), vehicle: saline with Tween-80 89 % of control

O=C1CSC(=S)N1/N=C/c1ccc(Cl)c(Cl)c1
inactive: dose: 1.56 mg/kg/injection, schedule: Q01DX009 (ip), vehicle: saline with Tween-80 100 % of control | dose: 3.13 mg/kg/injection, schedule: Q01DX009 (ip), vehicle: saline with Tween-80 110 % of control | [15] 120 % of control

CCOC(=O)C1CC1c1c(C)c2cc3[nH]c(cc4nc(cc5nc(cc1[nH]2)C(C)=C5CCC(=O)OC)C(CCC(=O)OC)=C4C)c(C)c3C1CC1C(=O)OCC (configuration not stated)
inactive: [4] 93 % of control | [5] 86 % of control

Nc1ccc(-c2ccc3ccccc3n2)cc1
inactive: dose: 3.13 mg/kg/injection, schedule: Q01DX009 (ip), vehicle: Klucel (hydroxypropylcellulose) (HPC) 103 % of control | dose: 6.25 mg/kg/injection, schedule: Q01DX009 (ip), vehicle: Klucel (hydroxypropylcellulose) (HPC) 101 % of control | dose: 12.5 mg/kg/injection, schedule: Q01DX009 (ip), vehicle: Klucel (hydroxypropylcellulose) (HPC) 106 % of control | [12] 88 % of control

O=[N+]([O-])c1ccc(N2N=NC(CN3CCOCC3)C2N2CCOCC2)cc1 (configuration not stated)
inactive: [16] 111 % of control | [17] 117 % of control | [18] 118 % of control

CC(=O)OCC(Cn1ccnc1[N+](=O)[O-])OC(C)=O (configuration not stated)
inactive: dose: 12.5 mg/kg/injection, schedule: Q01DX009 (ip), vehicle: distilled water + Tween-80 100 % of control | dose: 25.0 mg/kg/injection, schedule: Q01DX009 (ip), vehicle: distilled water + Tween-80 101 % of control | dose: 50.0 mg/kg/injection, schedule: Q01DX009 (ip), vehicle: distilled water + Tween-80 100 % of control | dose: 100.0 mg/kg/injection, schedule: Q01DX009 (ip), vehicle: distilled water + Tween-80 111 % of control | dose: 200.0 mg/kg/injection, schedule: Q01DX009 (ip), vehicle: distilled water + Tween-80 108 % of control

NNC12CCC(c3ccccc31)c1ccccc12
inactive: [6] 95 % of control | [7] 110 % of control | dose: 200.0 mg/kg/injection, schedule: Q04DX003 (ip), vehicle: saline with Tween-80 110 % of control

O=C(NCC1OC(n2cnc3c(=O)[nH]cnc32)C(O)C1O)c1cccc(S(=O)(=O)F)c1 (configuration not stated)
inactive: dose: 50.0 mg/kg/injection, schedule: Q01DX001 (ip), vehicle: saline with Tween-80 101 % of control | dose: 100.0 mg/kg/injection, schedule: Q01DX001 (ip), vehicle: saline with Tween-80 111 % of control | dose: 200.0 mg/kg/injection, schedule: Q01DX001 (ip), vehicle: saline with Tween-80 100 % of control

O=C1CCSC(=O)N1c1ccccc1
inactive: [4] 108 % of control | [5] 100 % of control | [8] 105 % of control

CCN(CC)CCC(CNc1c(C)cnc2cc(Cl)ccc12)c1ccc(OC)cc1 (configuration not stated)
inactive: [4] 105 % of control | [5] 105 % of control | [8] 105 % of control

O=C(Nc1cccc(Cl)c1Cl)OCCCc1ccncc1
inactive: [3] 100 % of control | dose: 100.0 mg/kg/injection, schedule: Q01DX009 (ip), vehicle: saline with Tween-80 100 % of control
